Experimental data: publication PMC12064818, “A general assay platform to study protein pharmacology using ligand-dependent structural dynamics” (Nature Communications, 2025)
Where “and” joins values, the source holds several entries; their conditions need not be identical. Identical values can stand only once. Like-named read-outs stand apart in the source and are kept apart here.

Legend:
[1] = target: T1, E. coli Lig-N-HiBiT (DNA ligase) (Escherichia coli, UniProt P15042); conditions: for SDR assay data: 0.5 nM E. coli Lig-N-HiBiT; for SDR assay data / SDR response: Log [ATP]; for SDR response: replicates
[2] = target: T1, E. coli Lig-N-HiBiT (DNA ligase); assay: biochemical
[3] = target: T2, ABL1-N-HiBiT kinase domain (Homo sapiens, UniProt P00519); assay: SDR assay, ABL1-N-HiBiT
T2 sequence (P00519 233-500): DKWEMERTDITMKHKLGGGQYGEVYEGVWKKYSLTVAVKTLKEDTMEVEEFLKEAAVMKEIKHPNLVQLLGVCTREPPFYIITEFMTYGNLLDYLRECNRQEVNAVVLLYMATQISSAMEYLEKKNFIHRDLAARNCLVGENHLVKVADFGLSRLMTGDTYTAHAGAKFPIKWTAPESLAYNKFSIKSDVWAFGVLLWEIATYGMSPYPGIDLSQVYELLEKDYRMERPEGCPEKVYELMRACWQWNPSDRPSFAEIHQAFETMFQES

iPGM = conditions: surface plasmon resonance kinetics; cited from earlier work
B. malayi iPGM-C-HiBiT = B. malayi iPGM-C-HiBiT (Brugia malayi, UniProt Q4VWF8); assay: biochemical
C. elegans iPGM-C-HiBiT = C. elegans iPGM-C-HiBiT (Caenorhabditis elegans, UniProt G5EFZ1); assay: C. elegans iPGM fluorescent polarization competition-binding assay (Ce-2d-FL probe); design: cDNA, containing Phe2-Ile539 and the 6xHis tag; His6 (C); made in house; host or cells: E. coli
Protocol: All reagents were prepared on ice, protected from light. […] Compounds and controls were added with a pintool to each plate as described in Supplementary Data 8. Assay plates were incubated for 20 min at ambient temperature. […] Microtiter plates were allowed to reach equilibrium (30 min incubation at ambient temperature) while protected from light. Fluorescence polarization was measured with the same reader settings as above. Data were row-wise normalized to no enzyme control as -100% activity and enzyme + DMSO vehicle control as neutral control. See Supplementary Table 7 for additional details.
Supplementary Table 7. Protocol for Co- factor independent phosphoglycerate mutase (iPGM) fluorescent polarization competition-biding assay
Supplementary Table 7: Protocol for C. elegans co-factor independent phosphoglycerate m utase (iPGM) fluorescent polarization com petition-binding assay
Sequence Param eter Value Description
No enzym e control (colum n 1) and enzym e solution (10 nM Ce iPGM-C-HiBiT dialyzed 1 Reagent 4 µLagainst Zn/Mn final assay concentration) in assay buffer + 0.05% IGEPAL; black/solid bottom , m edium bind, high base plates (Greiner), dispensed with BioRaptr 2 […]
Test com pounds: m acrocyclic peptides at 5 m M stock concentration in 16- pt, 1:3 titration […]
com pounds transferred to respective colum ns with Pintool
3 Incubation 20 m in Incubate enzym e + com pounds at am bient tem p for 20 m in, protected from light 4 Pre-Read Spark Measure fluorescence polarization of fluorescein (X480, M535) on Spark m ultimode m icroplate reader […]
dispensed with BioRaptr 2
6 Incubation 30 m in Am bient tem perature, protected from light
7 Detector Spark Measure fluorescence polarization of fluorescein (X480, M535) on Spark m ultimode m icroplate reader
Assay buffer: 30 m M Tris-HCl, pH 8.0; 5 m M MgSO4; 20 m M KCl; 0.05% IGEPAL. All solutions filtered through 0.22 1 µm syringe filter prior to dispense.
Measure fluorescence polarization of fluorescein on Spark m ultimode m icroplate reader with FP protocol: Excitation […]
4/7 20.0; G-Factor “Manual” = 1.000; Blank “Not Defined”.
Advanced Settings: Flashes = 30; Gain “Optim al”; Mirror “Autom atic”; Z-position [um ] “Manual” = 20000; Settle Tim e […]
Fluorescence polarization ligand solution: 30 m M Tris-HCl, pH 8.0; 5 m M MgSO4; 20 m M KCl; 0.05% IGEPAL; 15 […]
Solution filtered through 0.22
µm syringe filter prior to dispense.

[4] = target: FLuc-N-HiBiT (firefly luciferase) (Photinus pyralis, UniProt P08659, form not given/L550V); assay: SDR assay, FLuc-N-HiBiT; conditions: for 10 nM FLuc-N-HiBiT + 10 mM ATP, Mean / 10 nM FLuc-N-HiBiT No ATP, Mean: Log [PTC124]
[5] = E. coli Lig-N-HiBiT (0.5 nM), ligand 100 µM
[6] = C. elegans iPGM-C-HiBiT FP 10 nM, ligand […] FP

Sequence of FLuc-N-HiBiT (firefly luciferase) (P08659 2-550 L550V, form open): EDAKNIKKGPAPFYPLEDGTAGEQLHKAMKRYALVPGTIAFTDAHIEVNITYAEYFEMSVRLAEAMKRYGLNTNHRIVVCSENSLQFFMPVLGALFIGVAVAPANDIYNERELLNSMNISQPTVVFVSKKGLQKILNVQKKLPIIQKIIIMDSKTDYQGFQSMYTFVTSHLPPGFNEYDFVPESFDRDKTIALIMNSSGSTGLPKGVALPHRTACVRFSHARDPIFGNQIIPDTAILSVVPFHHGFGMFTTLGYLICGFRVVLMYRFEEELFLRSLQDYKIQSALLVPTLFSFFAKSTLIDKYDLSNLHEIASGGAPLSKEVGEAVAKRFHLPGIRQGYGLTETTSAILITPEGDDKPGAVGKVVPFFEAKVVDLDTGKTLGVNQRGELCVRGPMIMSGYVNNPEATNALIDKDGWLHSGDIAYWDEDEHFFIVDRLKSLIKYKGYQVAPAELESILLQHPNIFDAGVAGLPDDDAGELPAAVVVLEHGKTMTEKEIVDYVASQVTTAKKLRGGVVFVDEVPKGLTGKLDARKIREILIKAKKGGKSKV
T1 sequence (P15042 2-671): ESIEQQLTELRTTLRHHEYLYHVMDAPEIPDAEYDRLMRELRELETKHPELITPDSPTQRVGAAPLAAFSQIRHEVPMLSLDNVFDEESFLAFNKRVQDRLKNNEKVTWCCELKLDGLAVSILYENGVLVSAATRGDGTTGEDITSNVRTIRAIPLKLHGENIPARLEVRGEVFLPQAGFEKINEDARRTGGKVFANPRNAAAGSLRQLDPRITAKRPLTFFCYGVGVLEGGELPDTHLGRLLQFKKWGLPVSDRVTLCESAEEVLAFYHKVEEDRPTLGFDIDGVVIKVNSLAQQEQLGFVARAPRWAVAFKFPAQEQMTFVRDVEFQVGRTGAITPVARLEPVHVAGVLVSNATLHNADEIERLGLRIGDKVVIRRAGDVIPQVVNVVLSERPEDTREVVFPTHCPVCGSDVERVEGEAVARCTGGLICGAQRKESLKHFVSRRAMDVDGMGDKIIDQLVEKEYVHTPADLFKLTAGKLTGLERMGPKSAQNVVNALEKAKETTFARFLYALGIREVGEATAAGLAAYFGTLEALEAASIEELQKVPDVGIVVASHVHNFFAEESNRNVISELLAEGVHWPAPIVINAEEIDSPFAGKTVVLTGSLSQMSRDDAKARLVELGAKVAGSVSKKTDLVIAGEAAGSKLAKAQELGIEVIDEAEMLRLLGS
Sequence of C. elegans iPGM-C-HiBiT (G5EFZ1 2-539): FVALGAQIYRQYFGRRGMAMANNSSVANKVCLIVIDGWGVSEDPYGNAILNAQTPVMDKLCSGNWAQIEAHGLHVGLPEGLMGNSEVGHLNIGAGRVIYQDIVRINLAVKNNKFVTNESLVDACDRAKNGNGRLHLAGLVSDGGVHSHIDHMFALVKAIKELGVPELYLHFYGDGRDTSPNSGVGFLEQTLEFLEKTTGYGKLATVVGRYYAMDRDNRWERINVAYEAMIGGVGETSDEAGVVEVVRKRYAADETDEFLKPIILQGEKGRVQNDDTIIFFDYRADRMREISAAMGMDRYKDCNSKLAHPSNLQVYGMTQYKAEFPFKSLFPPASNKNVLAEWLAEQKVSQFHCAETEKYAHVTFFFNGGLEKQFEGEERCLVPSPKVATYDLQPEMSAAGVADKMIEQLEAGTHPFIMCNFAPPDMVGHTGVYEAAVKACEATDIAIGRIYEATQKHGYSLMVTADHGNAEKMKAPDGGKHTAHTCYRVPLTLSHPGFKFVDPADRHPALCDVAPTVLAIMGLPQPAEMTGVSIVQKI
Sequence of B. malayi iPGM-C-HiBiT (Q4VWF8 2-515): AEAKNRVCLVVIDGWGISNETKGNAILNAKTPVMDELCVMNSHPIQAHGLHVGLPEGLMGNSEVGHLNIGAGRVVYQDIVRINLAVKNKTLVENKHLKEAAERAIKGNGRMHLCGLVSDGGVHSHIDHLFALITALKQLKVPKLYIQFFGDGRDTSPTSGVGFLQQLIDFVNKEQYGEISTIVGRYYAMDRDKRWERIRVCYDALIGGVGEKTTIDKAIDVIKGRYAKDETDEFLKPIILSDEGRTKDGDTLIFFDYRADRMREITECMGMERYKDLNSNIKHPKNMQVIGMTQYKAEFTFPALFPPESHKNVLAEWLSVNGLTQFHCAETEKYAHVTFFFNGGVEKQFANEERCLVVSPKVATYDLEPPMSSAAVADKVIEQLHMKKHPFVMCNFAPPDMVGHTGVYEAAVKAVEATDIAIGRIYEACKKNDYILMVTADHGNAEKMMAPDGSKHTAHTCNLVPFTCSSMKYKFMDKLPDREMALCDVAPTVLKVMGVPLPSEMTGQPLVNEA

## Nc1ncnc2c1ncn2[C@@H]1O[C@H](COP(=O)(O)OP(=O)(O)OP(=O)(O)O)[C@@H](O)[C@H]1O [ATP]
[1]; M -2.85
  SDR assay data: 49.3 and 51.1 and 44.4
  SDR response: 49.3 and 51.1 and 44.4
[1]; M -3.15
  SDR assay data: 28.9 and 34.6 and 36.9
  SDR response: 28.9 and 34.6 and 36.9
[1]; M -3.45
  SDR assay data: 8.9 and 17.7 and 9.6
  SDR response: 8.9 and 17.7 and 9.6
[1]; E. coli Lig-N-HiBiT
  SDR assay response (in words): weak though reproducible SDR output
[1]; [5]
  SDR assay statistics Ave RLU: 315.5 RLU
  SDR assay statistics S:B: 1.1
  SDR assay statistics S:N: 0.6
  SDR assay statistics Z’: -6.013
[1]; E. coli Lig-N-HiBiT, maximum response
  max resp: 48.3
[1]; M -3.75
  SDR response: 3.6 and 9.8 and 15.1
[1]; M -4.05
  SDR response: 1.5 and 7.7 and 15.7
[1]; M -4.35
  SDR response: 0.051 and 11.3 and 4.7
[1]; M -4.65
  SDR response: 0.8 and 3.9 and 8.7
[1]; M -4.95
  SDR response: -0.949 and 1.5 and 6.8
[1]; M -5.25
  SDR response: -4.0 and 5.1 and 9.7
[1]; M -5.55
  SDR response: -8.9 and 4.7 and 2.7
[1]; M -5.86
  SDR response: -3.0 and -2.8 and 4.9
[1]; M -6.16
  SDR response: -9.9 and -0.326
[1]; M -6.46
  SDR response: -6.9 and 3.7
[1]; M -6.76
  SDR response: -8.7 and 1.0 and 4.2
[2]
  EC50: ≥ 100000 nM
[3]
  EC50: 24500 nM

## CC(C)C[C@H](NC(=O)[C@H](Cc1ccc(O)cc1)NC(=O)[C@@H]1CSCC(=O)N[C@H](Cc2ccc(O)cc2)C(=O)N[C@@H](CC(=O)O)C(=O)N[C@@H](Cc2ccc(O)cc2)C(=O)N2CCC[C@H]2C(=O)NCC(=O)N[C@@H](CC(=O)O)C(=O)N[C@@H](Cc2ccc(O)cc2)C(=O)N1)C(=O)N[C@@H](Cc1ccc(O)cc1)C(=O)NCC(=O)N[C@H](C(=O)N[C@@H](CS)C(=O)NCC(N)=O)[C@@H](C)O [Ce-2]
iPGM
  Kd: 0.038 nM
B. malayi iPGM-C-HiBiT
  EC50: 40.7 nM
C. elegans iPGM-C-HiBiT
  IC50: 34.7 nM
C. elegans iPGM-C-HiBiT; [6]
  Standard assay statistics Ave RLU: 67.8 RLU
  Standard assay statistics S:B: 1.4
  Standard assay statistics S:N: -2.4
  Standard assay statistics Z’: -0.978

## O=C(O)c1cccc(-c2noc(-c3ccccc3F)n2)c1 [PTC124, reference compound]
[4]; 0 μM ATP
  pSDR50, FLuc-N-HiBiT (10 nM): 6.64 ± 0.05
[4]; 10 μM ATP
  pSDR50, FLuc-N-HiBiT (10 nM): 8.07 ± 0.05
[4]; M (SDR) -4.48
  10 nM FLuc-N-HiBiT + 10 mM ATP, Mean: 41609.1 RLU
  10 nM FLuc-N-HiBiT No ATP, Mean: 44446.2 RLU
[4]; M (SDR) -4.96
  10 nM FLuc-N-HiBiT + 10 mM ATP, Mean: 42409.7 RLU
  10 nM FLuc-N-HiBiT No ATP, Mean: 44381.0 RLU
[4]; M (SDR) -5.44
  10 nM FLuc-N-HiBiT + 10 mM ATP, Mean: 42866.9 RLU
  10 nM FLuc-N-HiBiT No ATP, Mean: 43085.6 RLU
[4]; M (SDR) -5.91
  10 nM FLuc-N-HiBiT + 10 mM ATP, Mean: 43432.3 RLU
  10 nM FLuc-N-HiBiT No ATP, Mean: 42891.6 RLU
[4]; M (SDR) -6.39
  10 nM FLuc-N-HiBiT + 10 mM ATP, Mean: 43449.2 RLU
  10 nM FLuc-N-HiBiT No ATP, Mean: 36744.1 RLU
[4]; M (SDR) -6.87
  10 nM FLuc-N-HiBiT + 10 mM ATP, Mean: 43724.9 RLU
  10 nM FLuc-N-HiBiT No ATP, Mean: 28974.8 RLU
[4]; M (SDR) -7.35
  10 nM FLuc-N-HiBiT + 10 mM ATP, Mean: 42289.0 RLU
  10 nM FLuc-N-HiBiT No ATP, Mean: 26642.9 RLU
[4]; M (SDR) -7.82
  10 nM FLuc-N-HiBiT + 10 mM ATP, Mean: 38396.4 RLU
  10 nM FLuc-N-HiBiT No ATP, Mean: 23375.2 RLU
[4]; M (SDR) -8.30
  10 nM FLuc-N-HiBiT + 10 mM ATP, Mean: 32370.1 RLU
  10 nM FLuc-N-HiBiT No ATP, Mean: 21721.8 RLU
[4]; M (SDR) -8.78
  10 nM FLuc-N-HiBiT + 10 mM ATP, Mean: 29426.2 RLU
  10 nM FLuc-N-HiBiT No ATP, Mean: 22027.4 RLU
[4]; M (SDR) -9.25
  10 nM FLuc-N-HiBiT + 10 mM ATP, Mean: 28882.5 RLU
  10 nM FLuc-N-HiBiT No ATP, Mean: 22062.2 RLU
[4]; M (SDR) -9.73
  10 nM FLuc-N-HiBiT + 10 mM ATP, Mean: 28374.1 RLU
  10 nM FLuc-N-HiBiT No ATP, Mean: 21924.6 RLU
[4]; M (SDR) -10.21
  10 nM FLuc-N-HiBiT + 10 mM ATP, Mean: 28052.8 RLU
  10 nM FLuc-N-HiBiT No ATP, Mean: 22527.7 RLU
[4]; M (SDR) -10.69
  10 nM FLuc-N-HiBiT + 10 mM ATP, Mean: 27509.0 RLU
  10 nM FLuc-N-HiBiT No ATP, Mean: 22231.2 RLU
[4]; M (SDR) -11.16
  10 nM FLuc-N-HiBiT + 10 mM ATP, Mean: 27726.0 RLU
  10 nM FLuc-N-HiBiT No ATP, Mean: 21138.2 RLU
[4]; M (SDR) -11.64
  10 nM FLuc-N-HiBiT + 10 mM ATP, Mean: 27670.3 RLU
  10 nM FLuc-N-HiBiT No ATP, Mean: 21494.9 RLU
